In patent publication US11780841B2, “3,6-methano-1H-pyrrolo[3,2-b]pyridine and 3,6-methano-1H-pyrrolo[3,2-c]pyridine compounds and medicaments using same” (priority 2018, dated 2023):

What follows are compounds tested on recombinant rabies virus 1088 strain expressing Gaussia Luciferase (GLuc) (1088/GLuc). Conditions: read-out: Anti-rabies activity.
Format: cell-based

Structure (SMILES) | IC50
CC(C)CN1C[C@H]2C[C@]3(C(=O)NCCc4ccccc4)NC[C@H]2[C@H]1[C@H]3Cc1ccc(O)cc1 (relative stereo) [IF-567] | 10 to 30 µM
CC(C)CN1C[C@H]2C[C@]3(C(=O)NCc4cccc5ccccc45)NC[C@H]2[C@H]1[C@H]3Cc1ccc(O)cc1 (relative stereo) [IF-568] | < 5 µM
CCCCCCNC(=O)[C@@]12C[C@@H]3CN(CC(C)C)[C@@H]([C@@H]3CN1)[C@H]2CC(C)C (relative stereo) [IF-569] | 10 to 30 µM
CC(C)CN1C[C@H]2C[C@]3(C(=O)NCc4ccc(O)cc4)NC[C@H]2[C@H]1[C@H]3CCc1ccccc1 (relative stereo) [IF-576] | 10 to 30 µM
CC(C)C[C@@H]1[C@@H]2[C@@H]3CN[C@@]1(C(=O)NCc1cccc4ccccc14)C[C@@H]3CN2Cc1ccc(O)cc1 (relative stereo) [IF-578] | < 5 µM
CCCCCCNC(=O)[C@@]12C[C@@H]3CN(CCC(C)C)[C@@H]([C@@H]3CN1)[C@H]2Cc1ccc(O)cc1 (relative stereo) [IF-583] | < 5 µM
CC(C)CCNC(=O)[C@@]12C[C@@H]3CN(Cc4ccc(F)cc4)[C@@H]([C@@H]3CN1)[C@H]2Cc1ccccc1 (relative stereo) [IF-584] | < 5 µM
CC(C)CCNC(=O)[C@@]12C[C@@H]3CN(Cc4ccc(F)cc4)[C@@H]([C@@H]3CN1)[C@H]2CC(C)C (relative stereo) [IF-585] | < 5 µM
O=C(NCCc1ccccc1)[C@@]12C[C@@H]3CN(Cc4ccc(F)cc4)[C@@H]([C@@H]3CN1)[C@H]2Cc1ccccc1 (relative stereo) [IF-586] | 10 to 30 µM
CCCCCCNC(=O)[C@@]12C[C@@H]3CN(CCC(C)C)[C@@H]([C@@H]3CN1)[C@H]2Cc1ccccc1 (relative stereo) [IF-599] | 10 to 30 µM
CCCCCCNC(=O)[C@@]12C[C@@H]3CN(CCc4ccccc4)[C@@H]([C@@H]3CN1)[C@H]2Cc1ccccc1 (relative stereo) [IF-602] | 10 to 30 µM
CC(C)CNC(=O)[C@]12N=C[C@@H]3C[C@H]1CN(Cc1ccccc1)[C@H]2[C@@H]3CC(C)C (relative stereo) [IIB-4] | 5 to 10 µM
Cc1ccc(CNC(=O)[C@@]23C[C@@H]4CN(CC(C)C)[C@@H]([C@@H]4C=N2)[C@H]3Cc2ccccc2)cc1 (relative stereo) [IIF-16] | 10 to 30 µM
CC(C)CC[C@@H]1[C@H]2CN[C@@]3(C(=O)NCc4cccc5ccccc45)[C@@H](C2)CN(CC(N)=O)[C@@H]13 [IB-84] | 10 to 30 µM
CC(C)C[C@@H]1[C@H]2CN[C@@]3(C(=O)NCCc4ccccc4)[C@@H](C2)CN(CC(N)=O)[C@@H]13 [IB-86] | 10 to 30 µM
NC(=O)CN1C[C@@H]2C[C@@H]3CN[C@]2(C(=O)NCCc2ccccc2)[C@@H]1[C@@H]3Cc1ccccc1 [IB-87] | < 5 µM
CC(C)CC[C@@H]1[C@H]2CN[C@@]3(C(=O)NCCc4ccccc4)[C@@H](C2)CN(CC(N)=O)[C@@H]13 [IB-89] | < 5 µM
NC(=O)CN1C[C@@H]2C[C@@H]3CN[C@]2(C(=O)NCc2cccc4ccccc24)[C@@H]1[C@@H]3Cc1cccc2ccccc12 [IB-90] | < 5 µM
NC(=O)CN1C[C@@H]2C[C@@H]3CN[C@]2(C(=O)NCc2ccc(F)cc2)[C@@H]1[C@@H]3Cc1ccccc1 [IB-92] | 10 to 30 µM
NC(=O)CN1C[C@@H]2C[C@@H]3CN[C@]2(C(=O)NCc2ccc(F)cc2)[C@@H]1[C@@H]3CCc1ccccc1 [IB-95] | < 5 µM
NC(=O)CN1C[C@@H]2C[C@@H]3CN[C@]2(C(=O)NCc2ccc(F)cc2)[C@@H]1[C@@H]3Cc1cccc2ccccc12 [IB-96] | 10 to 30 µM
NC(=O)CN1C[C@@H]2C[C@@H]3CN[C@]2(C(=O)NCCc2ccccc2)[C@@H]1[C@@H]3Cc1cccc2ccccc12 [IB-97] | < 5 µM

Structure (SMILES) | IC50
CC(C)CCNC(=O)[C@]12NC[C@H]3C[C@H]1CN(CC(N)=O)[C@H]2[C@@H]3CCc1ccccc1 [IB-102] | < 5 µM
CC(C)CCNC(=O)[C@]12NC[C@H]3C[C@H]1CN(CC(N)=O)[C@H]2[C@@H]3Cc1cccc2ccccc12 [IB-103] | 10 to 30 µM
CCCCCCNC(=O)[C@]12NC[C@H]3C[C@H]1CN(CC(N)=O)[C@H]2[C@@H]3Cc1ccccc1 [IB-105] | 10 to 30 µM
CCCCCCNC(=O)[C@]12NC[C@H]3C[C@H]1CN(CC(N)=O)[C@H]2[C@@H]3CCC(C)C [IB-108] | 10 to 30 µM
CCCCCCNC(=O)[C@]12NC[C@H]3C[C@H]1CN(CC(N)=O)[C@H]2[C@@H]3CCc1ccccc1 [IB-109] | 10 to 30 µM
CCCCCCNC(=O)[C@]12NC[C@H]3C[C@H]1CN(CC(N)=O)[C@H]2[C@@H]3Cc1cccc2ccccc12 [IB-110] | < 5 µM
NC(=O)CN1C[C@@H]2C[C@@H]3CN[C@]2(C(=O)NCc2ccccc2)[C@@H]1[C@@H]3CCc1ccccc1 [IB-130] | 10 to 30 µM
CCCCCCNC(=O)[C@]12NC[C@H]3C[C@H]1CN(CCCNC(=N)N)[C@H]2[C@@H]3CCc1ccccc1 [IB-174] | 10 to 30 µM
CC(C)C[C@@H]1[C@H]2CN[C@@]3(C(=O)NC(C)C)[C@@H](C2)CN(CCCNC(=N)N)[C@@H]13 [IB-176] | 10 to 30 µM
CC(C)NC(=O)[C@]12NC[C@H]3C[C@H]1CN(CCCNC(=N)N)[C@H]2[C@@H]3CCc1ccccc1 [IB-179] | 10 to 30 µM
N=C(N)NCCCN1C[C@@H]2C[C@@H]3CN[C@]2(C(=O)NCc2ccc(F)cc2)[C@@H]1[C@@H]3Cc1ccccc1 [IB-182] | 10 to 30 µM
CC(C)CNC(=O)[C@]12NC[C@H]3C[C@H]1CN(CC(C)C)[C@H]2[C@@H]3CCCNC(=N)N [IB-187] | 10 to 30 µM
CC(C)CCNC(=O)[C@]12NC[C@H]3C[C@H]1CN(CC(C)C)[C@H]2[C@@H]3CCCNC(=N)N [IB-192] | < 5 µM
CC(C)CNC(=O)[C@]12NC[C@H]3C[C@H]1CN(Cc1ccccc1)[C@H]2[C@@H]3CCCNC(=N)N [IB-198] | 10 to 30 µM
CC(C)CNC(=O)[C@]12NC[C@H]3C[C@H]1CN(Cc1ccc(O)cc1)[C@H]2[C@@H]3CCCNC(=N)N [IB-203] | 10 to 30 µM
N=C(N)NCCC[C@@H]1[C@H]2CN[C@@]3(C(=O)NCc4ccc(F)cc4)[C@@H](C2)CN(Cc2ccc(O)cc2)[C@@H]13 [IB-207] | 10 to 30 µM
N=C(N)NCCC[C@@H]1[C@H]2CN[C@@]3(C(=O)NCCc4ccccc4)[C@@H](C2)CN(Cc2ccccc2)[C@@H]13 [IB-247] | 10 to 30 µM
CCCCCCNC(=O)[C@]12NC[C@H]3C[C@H]1CN(Cc1ccccc1)[C@H]2[C@@H]3CCCNC(=N)N [IB-249] | 10 to 30 µM
N=C(N)NCCC[C@@H]1[C@H]2CN[C@@]3(C(=O)NCc4ccc(F)cc4)[C@@H](C2)CN(Cc2ccccc2)[C@@H]13 [IB-250] | 10 to 30 µM
CCCCCCNC(=O)[C@]12NC[C@H]3C[C@H]1CN(CCc1ccccc1)[C@H]2[C@@H]3CCCNC(=N)N [IB-256] | 10 to 30 µM
N=C(N)NCCC[C@@H]1[C@H]2CN[C@@]3(C(=O)NCc4ccccc4)[C@@H](C2)CN(Cc2ccc(F)cc2)[C@@H]13 [IB-260] | 10 to 30 µM
N=C(N)NCCC[C@@H]1[C@H]2CN[C@@]3(C(=O)NCCc4ccccc4)[C@@H](C2)CN(Cc2ccc(F)cc2)[C@@H]13 [IB-262] | 10 to 30 µM

Structure (SMILES) | IC50
CC(C)CC[C@@H]1[C@H]2CN[C@@]3(C(=O)NCCC(N)=O)[C@@H](C2)CN(Cc2ccccc2)[C@@H]13 [IB-274] | 10 to 30 µM
N=C(N)NCCCNC(=O)[C@]12NC[C@H]3C[C@H]1CN(Cc1ccccc1)[C@H]2[C@@H]3Cc1ccccc1 [IB-276] | 10 to 30 µM
N=C(N)NCCCNC(=O)[C@]12NC[C@H]3C[C@H]1CN(Cc1ccccc1)[C@H]2[C@@H]3CCc1ccccc1 [IB-279] | 10 to 30 µM
N=C(N)NCCCNC(=O)[C@]12NC[C@H]3C[C@H]1CN(Cc1ccccc1)[C@H]2[C@@H]3Cc1cccc2ccccc12 [IB-280] | 10 to 30 µM
N=C(N)NCCCN1C[C@@H]2C[C@@H]3CN[C@]2(C(=O)NCc2ccccc2)[C@@H]1[C@@H]3Cc1cccc2ccccc12 [IB-300] | 10 to 30 µM
N=C(N)NCCCN1C[C@@H]2C[C@@H]3CN[C@]2(C(=O)NCCc2ccccc2)[C@@H]1[C@@H]3Cc1cccc2ccccc12 [IB-327] | 10 to 30 µM
CC(C)CC[C@@H]1[C@H]2CN[C@@]3(C(=O)NCCC(N)=O)[C@@H](C2)CN(CCc2ccccc2)[C@@H]13 [IB-342] | 10 to 30 µM
N=C(N)NCCCNC(=O)[C@]12NC[C@H]3C[C@H]1CN(CCc1ccccc1)[C@H]2[C@@H]3Cc1ccccc1 [IB-344] | 10 to 30 µM
CC(C)CC[C@@H]1[C@H]2CN[C@@]3(C(=O)NCCCNC(=N)N)[C@@H](C2)CN(CCc2ccccc2)[C@@H]13 [IB-346] | 10 to 30 µM
N=C(N)NCCCNC(=O)[C@]12NC[C@H]3C[C@H]1CN(CCc1ccccc1)[C@H]2[C@@H]3Cc1cccc2ccccc12 [IB-347] | 10 to 30 µM
CC(C)CC[C@@H]1[C@H]2CN[C@@]3(C(=O)NCCC(N)=O)[C@@H](C2)CN(Cc2cccc4ccccc24)[C@@H]13 [IB-349] | < 5 µM
CC(C)C[C@@H]1[C@H]2CN[C@@]3(C(=O)NCCCNC(=N)N)[C@@H](C2)CN(Cc2cccc4ccccc24)[C@@H]13 [IB-350] | 10 to 30 µM
N=C(N)NCCCNC(=O)[C@]12NC[C@H]3C[C@H]1CN(Cc1cccc4ccccc14)[C@H]2[C@@H]3Cc1ccccc1 [IB-351] | 10 to 30 µM
CC(C)CC[C@@H]1[C@H]2CN[C@@]3(C(=O)NCCCNC(=N)N)[C@@H](C2)CN(Cc2cccc4ccccc24)[C@@H]13 [IB-353] | < 5 µM
N=C(N)NCCCNC(=O)[C@]12NC[C@H]3C[C@H]1CN(Cc1cccc4ccccc14)[C@H]2[C@@H]3CCc1ccccc1 [IB-354] | < 5 µM
CC(C)CC[C@@H]1[C@H]2CN[C@@]3(C(=O)NCCC(N)=O)[C@@H](C2)CN(CC2CCCCC2)[C@@H]13 [IB-357] | 10 to 30 µM
CC(C)CC[C@@H]1[C@H]2CN[C@@]3(C(=O)NCCCNC(=N)N)[C@@H](C2)CN(CC2CCCCC2)[C@@H]13 [IB-361] | 10 to 30 µM
N=C(N)NCCCNC(=O)[C@]12NC[C@H]3C[C@H]1CN(CC1CCCCC1)[C@H]2[C@@H]3CCc1ccccc1 [IB-362] | < 5 µM
CC(C)CC[C@@H]1[C@H]2CN[C@@]3(C(=O)NCCC(N)=O)[C@@H](C2)CN(Cc2ccc(F)cc2)[C@@H]13 [IB-365] | 10 to 30 µM
CC(C)CC[C@@H]1[C@H]2CN[C@@]3(C(=O)NCCCNC(=N)N)[C@@H](C2)CN(Cc2ccc(F)cc2)[C@@H]13 [IB-369] | 10 to 30 µM
CC(C)CC[C@@H]1[C@H]2CN[C@@]3(C(=O)NCC(C)C)[C@@H](C2)CN(CCO)[C@@H]13 [IB-372] | 10 to 30 µM

Same assay, conditions: read-out: IC50

Structure (SMILES) | IC50
CC(C)CNC(=O)[C@]12N=C[C@@H]3C[C@H]1CN(Cc1ccccc1)[C@H]2[C@@H]3CC(C)C (relative stereo) [IIB-4] | 8.9 µM
Cc1ccc(CNC(=O)[C@@]23C[C@@H]4CN(CC(C)C)[C@@H]([C@@H]4C=N2)[C@H]3Cc2ccccc2)cc1 (relative stereo) [IIF-16] | 28.7 µM
